Experimental data taken from patent US9850247B2 (Almac Discovery Limited, priority 2013, dated 2017).
Where two headings read alike, the source gives them in different places.

Legend:
[1] = target: T1, Wee-1 kinase (Homo sapiens, UniProt P30291); assay: Measurement of Wee-1 kinase activity (ADP-Glo luminescent kit); format: biochemical
T1 construct: purchased Invitrogen PV3817
Outline: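 ADP-Glo luminescence reads ADP made over 1 h at RT, after an aliquot of 30 μM ATP and 2.0 μg/mL poly(Lys,Tyr 4:1) substrate. Before that, the kinase sat 30 min with inhibitor in Tris-HCl/MgCl2 buffer with BSA and DTT. IC50 came from regression of percent inhibition.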

[2] = test system: phospho-cdc2 (Tyr15) in HT-29 cells; assay: Effect on Cdc2 phosphorylation at Tyr15, Cell-Based ELISA Base Kit (Method 3); conditions: eight hours incubation, normalized to total cdc2, read-out: HT29 pCDC2 method 3
Procedure: Method 3: Determining the Effect of Compounds on the Cdc2 phosphorylation at Tyr15, using a Cell-Based ELISA Base Kit (R&D Systems, KCB001)
The colorectal cancer cell line, HT-29 was purchased from the ATCC and maintained in McCoy's 5 A medium (Gibco®, Life technologies) supplemented with 10% Foetal Calf Serum (FCS).
The cells were trypsinised and counted, 100 μL of 8000 cells was seeded into each well of a clear-bottom black 96-well microplate and incubated overnight to allow adherence to the surface, at 37° C. and 5% CO2 in a cell culture incubator.
Test compounds were formulated in DMSO and diluted in cell culture medium supplemented with FCS. Grow medium was removed from cells and medium containing compounds dilutions was added to each well. The plate was returned to the incubator for an additional eight hours of incubation at 37° C. and 5% CO2.
Post incubation cells were fixed by replacing the compounds supplemented medium with 100 μL of 4% formaldehyde in 1× phosphate buffered saline (PBS), for 20 minutes at room temperature. Formaldehyde solution was removed and cells were washed three times with PBS. The Cell-Based ELISA assay (R&D Systems) was carried out immediately after cell fixation or the plate was sealed and fixed cells were stored in PBS at 4° C. until required (no more than two weeks).
To continue the assay, PBS was removed and cells were washed 3 times for 5 minutes with 200 μL of 1× wash buffer. Each wash step was carried out with gentle shaking. Following washes, 100 μL of 0.6% H2O2 in 1× wash buffer (quenching buffer) was added, plate was sealed and incubated for 20 minutes at room temperature. Post incubation cells were washes 3 times for 5 minutes with 200 μL of 1× wash buffer, with gentle shaking. 100 μL of blocking buffer was added to each well, the plate was re-sealed and incubated at room temperature for 1 h.
After blocking, cells were washed as described above. A primary antibody mixture was prepared by mixing the two primary antibodies, a rabbit monoclonal antibody for phospho-cdc2 (Tyr15) (Cell Signaling, #4539) and mouse monoclonal antibody for total cdc2 p34 (Santa Cruz Biotechnology, sc-54), diluted 1:25 and 1:50 in blocking buffer, respectively. 60 μL of primary antibody mixture was added to each well, the plate was sealed and incubated overnight at 4° C.
The primary antibodies were removed and cells were washed as previously described. 100 μL of secondary antibody mixture, containing horseradish-peroxidase (HRP)-conjugated goat anti-rabbit IgG and alkaline phosphatase (AP)-conjugated goat anti-mouse IgG, diluted 1:100 in blocking buffer, was added to each test well. The plate was re-sealed and incubated for 2 hours at room temperature.
The secondary antibodies were removed and cells washed 2 times with wash buffer, followed by 2 washes with PBS. Each wash step was carried out for 5 minutes with gentle shaking. PBS was removed and 75 μL of fluorogenic substrate for HRP (substrate F1) added to each well. The plate was sealed and incubated for 1 h at room temperature, in the dark. 75 μL of fluorogenic substrate for AP (substrate F2) was added directly to each well, plate re-sealed and incubated for additional 40 minutes at room temperature, protected from direct light.
Following incubation fluorescence from each well was read at 600 nm (signal from substrate 1, phosphorylated protein) and then at 450 nm (signal from substrate 2, total protein).
The percentage of phospho-cdc2 was calculated compared to DMSO control, normalized to the total cdc2 and plotted versus the concentration of inhibitor, using GraphPad Prism. Data was fitted using a non-linear regression analysis and EC50 values generated.

[3] = CLint estimates using human liver microsomes (Method 4); format: in vitro ADME; conditions: pH 7.4, 1 μM compound, read-out: Mics - CLint (HLM CLint)
Outline: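 Depletion measured by LC/MS/MS in MRM mode over 2–50 min after starting reactions with 1 mM NADPH. Incubations used 0.5 mg/mL human liver microsomal protein, 1 μM compound, 0.1% DMSO, pH 7.4 phosphate buffer, 37 °C. ln peak area plotted against time; the gradient gave t½ and intrinsic clearance.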

T1 sequence (P30291 whole entry): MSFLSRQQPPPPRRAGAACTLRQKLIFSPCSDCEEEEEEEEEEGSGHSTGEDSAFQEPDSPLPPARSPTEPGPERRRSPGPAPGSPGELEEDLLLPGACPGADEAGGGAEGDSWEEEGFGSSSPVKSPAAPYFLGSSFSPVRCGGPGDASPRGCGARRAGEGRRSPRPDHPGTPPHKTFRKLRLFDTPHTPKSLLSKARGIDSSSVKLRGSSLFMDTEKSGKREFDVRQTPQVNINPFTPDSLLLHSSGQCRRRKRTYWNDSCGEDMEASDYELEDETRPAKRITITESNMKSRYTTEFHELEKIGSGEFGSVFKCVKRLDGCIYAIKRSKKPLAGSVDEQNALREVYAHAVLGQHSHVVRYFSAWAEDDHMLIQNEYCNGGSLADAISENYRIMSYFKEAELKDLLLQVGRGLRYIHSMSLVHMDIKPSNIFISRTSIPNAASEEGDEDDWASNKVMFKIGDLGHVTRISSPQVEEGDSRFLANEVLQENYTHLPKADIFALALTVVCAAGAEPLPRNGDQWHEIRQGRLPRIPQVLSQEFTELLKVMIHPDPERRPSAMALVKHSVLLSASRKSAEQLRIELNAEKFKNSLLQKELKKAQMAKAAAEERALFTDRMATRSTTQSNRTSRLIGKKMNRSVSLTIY

IC50 [1] | microsomal CLint at 1 μM [3] | SMILES | EC50 ([2]; Homo sapiens, HT-29, 8 h) | EC50 [2]
≤ 10 nM | 15 to 50 µL/min/mg | COC[C@H]1CN(c2ccc(Nc3ncc4c(n3)N(C)CN(c3c(Cl)cccc3Cl)C4=O)cc2C(O)C(F)F)CCN1 (single isomer, unassigned) [Example 162] | 100 to 1000 nM | –
≤ 10 nM | – | COC[C@H]1CN(c2ccc(Nc3ncc4c(n3)N(C)CN(c3c(Cl)cccc3Cl)C4=O)cc2C(O)C(F)(F)F)CCN1 (single isomer, unassigned) [Example 185] | – | 100 to 1000 nM
≤ 10 nM | 15 to 50 µL/min/mg | CN1CCN(c2ccc(Nc3ncc4c(n3)N(C)CN(c3c(Cl)cccc3Cl)C4=O)cc2CO)CC1 [Example 33, 3-(2,6-dichlorophenyl)-7-((3-(hydroxymethyl)-4-(4-methylpiperazin-1-yl)phenyl)amino)-1-methyl-2,3-dihydropyrimido[4,5-d]pyrimidin-4(1H)-one] | 100 to 1000 nM | –
≤ 10 nM | ≤ 15 µL/min/mg | C[C@@H]1CN(c2ccc(Nc3ncc4c(n3)N(C)CN(c3c(Cl)cccc3Cl)C4=O)cc2CO)CCN1 [Example 38, (R)-3-(2,6-dichlorophenyl)-7-((3-(hydroxymethyl)-4-(3-methylpiperazin-1-yl)phenyl)amino)-1-methyl-2,3-dihydropyrimido[4,5-d]pyrimidin-4(1H)-one] | 100 to 1000 nM | –
10 to 100 nM | – | C[C@@H]1CN(c2ccc(Nc3ncc4c(n3)N(C)CN(c3ccccc3Cl)C4=O)cc2)C[C@H](C)N1 [Example 103, 3-(2-chlorophenyl)-7-((4-((3S,5R)-3,5-dimethylpiperazin-1-yl)phenyl)amino)-1-methyl-2,3-dihydropyrimido[4,5-d]pyrimidin-4(1H)-one] | 100 to 1000 nM | –
10 to 100 nM | – | CNCc1cc(Nc2ncc3c(n2)N(C)CN(c2c(Cl)cccc2Cl)C3=O)ccc1-c1cnn(C)c1 [Example 160, 3-(2,6-dichlorophenyl)-1-methyl-7-((4-(1-methyl-1H-pyrazol-4-yl)-3-((methylamino)methyl)phenyl)amino)-2,3-dihydropyrimido[4,5-d]pyrimidin-4(1H)-one] | ≥ 1000 nM | –
≤ 10 nM | – | CN1CN(c2c(Cl)cccc2Cl)C(=O)c2cnc(Nc3ccc(N4C[C@@H]5C[C@H]4CN5)c(CO)c3)nc21 [Example 164, 7-((4-((1S,4S)-2,5-diazabicyclo[2.2.1]heptan-2-yl)-3-(hydroxymethyl)phenyl)amino)-3-(2,6-dichlorophenyl)-1-methyl-2,3-dihydropyrimido[4,5-d]pyrimidin-4(1H)-one] | ≥ 1000 nM | –
≤ 10 nM | – | O=C1c2cnc(Nc3ccc(N4CCNCC4)cc3)nc2N(c2ccccc2)CN1c1c(Cl)cccc1Cl [Example 171, 3-(2,6-dichlorophenyl)-1-phenyl-7-((4-(piperazin-1-yl)phenyl)amino)-2,3-dihydropyrimido[4,5-d]pyrimidin-4(1H)-one] | 100 to 1000 nM | –
10 to 100 nM | – | CN(C)CC(O)c1cccc(Nc2ncc3c(n2)N(C)CN(c2c(Cl)cccc2Cl)C3=O)c1 (centres unmarked) [Example 172, 3-(2,6-dichlorophenyl)-7-((3-(2-(dimethylamino)-1-hydroxyethyl)phenyl)amino)-1-methyl-2,3-dihydropyrimido[4,5-d]pyrimidin-4(1H)-one] | ≥ 1000 nM | –
10 to 100 nM | – | CCNCc1cc(Nc2ncc3c(n2)N(C)CN(c2c(Cl)cccc2Cl)C3=O)ccc1N1CCOCC1 [Example 174, 3-(2,6-dichlorophenyl)-7-((3-((ethylamino)methyl)-4-morpholinophenyl)amino)-1-methyl-2,3-dihydropyrimido[4,5-d]pyrimidin-4(1H)-one] | ≥ 1000 nM | –
≤ 10 nM | – | CN1CN(c2c(Cl)cccc2Cl)C(=O)c2cnc(Nc3ccc(N4C[C@@H]5C[C@H]4CN5C)c(CO)c3)nc21 [Example 176, 3-(2,6-dichlorophenyl)-7-((3-(hydroxymethyl)-4-((1S,4S)-5-methyl-2,5-diazabicyclo[2.2.1]heptan-2-yl)phenyl)amino)-1-methyl-2,3-dihydropyrimido[4,5-d]pyrimidin-4(1H)-one] | 100 to 1000 nM | –
≤ 10 nM | – | Cc1cc(Nc2ncc3c(n2)N(C)CN(c2c(Cl)cccc2Cl)C3=O)ccc1C1=CCN(C)CC1 [Example 178, 3-(2,6-dichlorophenyl)-1-methyl-7-((3-methyl-4-(1-methyl-1,2,3,6-tetrahydropyridin-4-yl)phenyl)amino)-2,3-dihydropyrimido[4,5-d]pyrimidin-4(1H)-one] | 100 to 1000 nM | –
≤ 10 nM | – | CN1CN(c2c(Cl)cccc2Cl)C(=O)c2cnc(Nc3ccc(C4=CCNCC4)c(CO)c3)nc21 [Example 179, 3-(2,6-dichlorophenyl)-7-((3-(hydroxymethyl)-4-(1,2,3,6-tetrahydropyridin-4-yl)phenyl)amino)-1-methyl-2,3-dihydropyrimido[4,5-d]pyrimidin-4(1H)-one] | ≥ 1000 nM | –
≤ 10 nM | – | CN1CC=C(c2ccc(Nc3ncc4c(n3)N(C)CN(c3c(Cl)cccc3Cl)C4=O)cc2CO)CC1 [Example 180, 3-(2,6-dichlorophenyl)-7-((3-(hydroxymethyl)-4-(1-methyl-1,2,3,6-tetrahydropyridin-4-yl)phenyl)amino)-1-methyl-2,3-dihydropyrimido[4,5-d]pyrimidin-4(1H)-one] | 100 to 1000 nM | –
≤ 10 nM | – | CN1CN(c2c(Cl)cccc2Cl)C(=O)c2cnc(Nc3ccc(C4CCN(C5CCC5)CC4)c(CO)c3)nc21 [Example 181, 7-((4-(1-cyclobutylpiperidin-4-yl)-3-(hydroxymethyl)phenyl)amino)-3-(2,6-dichlorophenyl)-1-methyl-2,3-dihydropyrimido[4,5-d]pyrimidin-4(1H)-one] | 100 to 1000 nM | –

SMILES | IC50 [1] | microsomal CLint at 1 μM [3] | EC50 ([2]; Homo sapiens, HT-29, 8 h) | EC50 [2]
CN1CN(c2c(Cl)cccc2Cl)C(=O)c2cnc(Nc3ccc4c(c3)C3CCC4N3)nc21 (centres unmarked) [Example 166, 3-(2,6-dichlorophenyl)-1-methyl-7-((1,2,3,4-tetrahydro-1,4-epiminonaphthalen-6-yl)amino)-2,3-dihydropyrimido[4,5-d]pyrimidin-4(1H)-one] | 10 to 100 nM | – | ≥ 1000 nM | –
CN1CN(c2c(Cl)cccc2Cl)C(=O)c2cnc(Nc3ccc(N4CC5COCC(C4)N5)c(CO)c3)nc21 [Example 173, 7-((4-(3-oxa-7,9-diazabicyclo[3.3.1]nonan-7-yl)-3-(hydroxymethyl)phenyl)amino)-3-(2,6-dichlorophenyl)-1-methyl-2,3-dihydropyrimido[4,5-d]pyrimidin-4(1H)-one] | 10 to 100 nM | – | 100 to 1000 nM | –
CN1CN(c2c(Cl)cccc2Cl)C(=O)c2cnc(Nc3ccc4c(c3)C3CCC4N3C)nc21 (centres unmarked) [Example 175, 3-(2,6-dichlorophenyl)-1-methyl-7-((9-methyl-1,2,3,4-tetrahydro-1,4-epiminonaphthalen-6-yl)amino)-2,3-dihydropyrimido[4,5-d]pyrimidin-4(1H)-one] | ≤ 10 nM | – | 100 to 1000 nM | –
Cc1cc(Nc2ncc3c(n2)N(C)CN(c2c(Cl)cccc2Cl)C3=O)ccc1C1=CCNCC1 [Example 177, 3-(2,6-dichlorophenyl)-1-methyl-7-((3-methyl-4-(1,2,3,6-tetrahydropyridin-4-yl)phenyl)amino)-2,3-dihydropyrimido[4,5-d]pyrimidin-4(1H)-one] | ≤ 10 nM | – | 100 to 1000 nM | –
